From publication PMC5571287 (Antimicrobial Agents and Chemotherapy, 2017)
Like-named read-outs stand apart in the source and are kept apart here. One block for each compound: values may come before it.

Key:
[1] = tested on: RSV A 1998/3-2; assay: CPE 2, neutral red 96-well CPE assay in HEp-2; format: cell-based; settings: human respiratory syncytial virus
Description: (§1) For RSV A 2001/3-12, 1998/3-2, and USU⃥v1225, CPE was induced in HEp-2 cells for 7 days and the plates were then stained with neutral red dye for approximately 2 h. The intracellular incorporated dye was extracted in 50:50 Sorensen citrate buffer-ethanol and the absorbance read on a spectrophotometer. The optical density (OD) of test wells was converted to percentage of cell and virus controls. […] The virus inocula were ∼63 50% cell culture infectious doses (CCID50) per well for 2001/3-12, ∼40 CCID50/well for 1998/3-2, and ∼32 CCID50/well for USU\v1225. This assay was conducted in Utah State University (Logan, UT).

[2] = tested on: RSV A USU\v1225; assay: CPE 2, neutral red 96-well CPE assay in HEp-2; format: cell-based; settings: human respiratory syncytial virus
Description: as §1

[3] = tested on: RSV A 2001/3-12; assay: CPE 2, neutral red 96-well CPE assay in HEp-2; format: cell-based; settings: human respiratory syncytial virus
Description: as §1

[4] = tested on: RSV A 1997/12-35; assay: CPE 1, resazurin 384-well CPE assay in HEp-2; format: cell-based; settings: human respiratory syncytial virus
Description: (§2) For known clinical strains (RSV A 1997/12-35, 2001/2-20, 200/3-4, and Memphis 37), a 384-well-format resazurin-based CPE assay was conducted.

[5] = tested on: RSV A Memphis 37c; assay: CPE 1, resazurin 384-well CPE assay in HEp-2; format: cell-based; settings: human respiratory syncytial virus
Description: as §2

[6] = tested on: RSV A 2000/3-4; assay: CPE 1, resazurin 384-well CPE assay in HEp-2; format: cell-based; settings: human respiratory syncytial virus
Description: as §2

[7] = tested on: RSV A 2001/2-20; assay: CPE 1, resazurin 384-well CPE assay in HEp-2; format: cell-based; settings: human respiratory syncytial virus
Description: as §2

[8] = Cell viability in HEp-2 cells (resazurin); settings: human, HEp-2 cells
[9] = tested on: RSV B WST; assay: CPE assay, RSV B Washington in HEp-2 cells (resazurin); format: cell-based, respiratory syncytial virus
[10] = target: minigenome construct comprising the L protein, M2-1, N, and P of RSV A2 (Human respiratory syncytial virus A, UniProt P28887); assay: cell-based
minigenome construct comprising the L protein, M2-1, N, and P of RSV A2, sequence (P28887 whole entry): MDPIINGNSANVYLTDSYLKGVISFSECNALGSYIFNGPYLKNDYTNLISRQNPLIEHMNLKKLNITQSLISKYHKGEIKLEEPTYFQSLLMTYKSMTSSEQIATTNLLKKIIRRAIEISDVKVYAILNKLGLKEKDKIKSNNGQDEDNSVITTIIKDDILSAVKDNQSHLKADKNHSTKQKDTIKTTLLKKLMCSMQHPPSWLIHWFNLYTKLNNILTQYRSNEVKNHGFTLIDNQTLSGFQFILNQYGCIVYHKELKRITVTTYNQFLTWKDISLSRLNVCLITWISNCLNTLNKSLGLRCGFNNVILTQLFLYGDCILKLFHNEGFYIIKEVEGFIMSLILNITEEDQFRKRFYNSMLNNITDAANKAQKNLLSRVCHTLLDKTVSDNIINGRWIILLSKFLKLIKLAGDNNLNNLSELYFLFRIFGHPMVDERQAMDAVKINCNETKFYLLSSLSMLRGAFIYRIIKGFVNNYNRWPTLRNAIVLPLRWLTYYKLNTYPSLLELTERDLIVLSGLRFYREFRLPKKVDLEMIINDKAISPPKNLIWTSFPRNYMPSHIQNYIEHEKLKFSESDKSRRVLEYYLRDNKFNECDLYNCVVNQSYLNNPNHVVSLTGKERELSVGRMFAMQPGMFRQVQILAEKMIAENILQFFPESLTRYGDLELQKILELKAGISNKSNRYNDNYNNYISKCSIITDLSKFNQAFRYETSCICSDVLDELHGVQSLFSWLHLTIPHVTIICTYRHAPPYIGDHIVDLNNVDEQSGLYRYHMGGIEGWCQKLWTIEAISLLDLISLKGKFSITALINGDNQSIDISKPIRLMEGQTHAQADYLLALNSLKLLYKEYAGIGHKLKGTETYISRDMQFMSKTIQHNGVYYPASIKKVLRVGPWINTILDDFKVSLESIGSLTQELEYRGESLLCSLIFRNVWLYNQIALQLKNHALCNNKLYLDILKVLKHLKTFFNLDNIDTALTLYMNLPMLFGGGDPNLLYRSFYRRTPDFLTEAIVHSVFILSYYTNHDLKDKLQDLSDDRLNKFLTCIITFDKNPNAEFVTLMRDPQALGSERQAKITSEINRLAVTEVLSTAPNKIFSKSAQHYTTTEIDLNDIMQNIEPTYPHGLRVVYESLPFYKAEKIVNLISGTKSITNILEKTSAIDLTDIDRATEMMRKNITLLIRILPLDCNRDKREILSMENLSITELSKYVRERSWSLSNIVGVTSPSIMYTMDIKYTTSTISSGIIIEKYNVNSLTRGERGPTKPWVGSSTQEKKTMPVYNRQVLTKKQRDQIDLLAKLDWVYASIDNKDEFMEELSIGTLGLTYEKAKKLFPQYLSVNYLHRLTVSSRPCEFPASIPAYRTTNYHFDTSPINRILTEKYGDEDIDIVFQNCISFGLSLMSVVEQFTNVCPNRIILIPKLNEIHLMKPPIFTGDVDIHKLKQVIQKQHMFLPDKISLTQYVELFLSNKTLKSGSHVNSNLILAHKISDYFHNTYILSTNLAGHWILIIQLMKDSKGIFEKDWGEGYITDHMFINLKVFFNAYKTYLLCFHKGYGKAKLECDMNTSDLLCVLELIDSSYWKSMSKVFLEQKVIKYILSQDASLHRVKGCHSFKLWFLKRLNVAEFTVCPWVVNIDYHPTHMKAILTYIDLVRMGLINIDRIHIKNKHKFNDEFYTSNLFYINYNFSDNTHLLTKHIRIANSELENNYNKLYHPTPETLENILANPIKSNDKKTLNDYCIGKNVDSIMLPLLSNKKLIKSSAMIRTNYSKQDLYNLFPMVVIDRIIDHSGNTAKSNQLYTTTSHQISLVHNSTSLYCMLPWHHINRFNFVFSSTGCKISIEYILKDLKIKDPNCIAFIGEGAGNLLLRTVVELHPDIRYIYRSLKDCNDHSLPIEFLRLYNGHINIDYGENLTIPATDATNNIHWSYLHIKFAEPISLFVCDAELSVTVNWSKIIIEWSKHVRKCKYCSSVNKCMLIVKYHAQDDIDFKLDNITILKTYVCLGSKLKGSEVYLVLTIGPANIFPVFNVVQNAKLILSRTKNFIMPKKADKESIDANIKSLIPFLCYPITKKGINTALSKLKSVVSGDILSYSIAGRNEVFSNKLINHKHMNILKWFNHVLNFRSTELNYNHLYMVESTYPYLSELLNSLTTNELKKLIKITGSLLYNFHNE
minigenome construct comprising the L protein, M2-1, N, and P of RSV A2, sequence (P03421 whole entry, further chain): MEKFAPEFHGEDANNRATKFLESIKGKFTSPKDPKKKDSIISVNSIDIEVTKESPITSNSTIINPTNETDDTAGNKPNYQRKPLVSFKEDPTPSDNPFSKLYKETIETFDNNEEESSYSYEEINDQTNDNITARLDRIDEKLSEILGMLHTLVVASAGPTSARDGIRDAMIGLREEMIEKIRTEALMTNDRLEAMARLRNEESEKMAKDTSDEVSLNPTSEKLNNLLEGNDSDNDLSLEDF

[11] = tested on: RSV A2; assay: CPE assay, RSV A2 in HEp-2 cells (resazurin); format: cell-based, respiratory syncytial virus; settings: for IC50: read-out: RSV A2 IC50; for IC90: read-out: RSV A2 IC90
[12] = tested on: PC786 escape mutant (Y1631H) of RSV A2; format: cell-based, respiratory syncytial virus; settings: for IC50: read-out: PC786 escape mutant IC50, N=3, after 6th passage; for IC50 / IC90: CPE; for IC90: read-out: PC786 escape mutant IC90, N=3; for activity on CPE of the PC786 escape mutant, in words: vs wild type
[13] = tested on: Wild type RSVA2 (vehicle control virus); assay: CPE assay, vehicle control (wild type) RSV A2 virus; settings: for IC50: read-out: Wild type RSVA2 IC50; for IC90: read-out: Wild type RSVA2 IC90
[14] = tested on: RSV A2; assay: Time-of-addition assay and MOI dependency, CPE (methylene blue) in HEp-2; format: cell-based; settings: human respiratory syncytial virus
[15] = in vitro; settings: human
[16] = tested on: RSV A2; assay: RSV F protein cell-based ELISA in BEAS-2B cells, washout / nonwashout; settings: human respiratory syncytial virus, read-out: IC50, F protein expressed on cell surfaces
Description: Approximately 72 h after BEAS-2B cells were seeded in 96-well plates (at 4 × 10^4/ml; 100 μl/well), the medium in the plates was removed and replaced with 200 μl of fresh LHC-8 medium. […] For nonwashout plates, the compounds and DMSO (1 μl/well) were applied immediately after infection. On day 3 postinfection, supernatant was aspirated and the cells were fixed with 4% formaldehyde (100 μl in PBS solution) for 20 min at room temperature (RT), washed three times with wash buffer (WB) (200 μl; PBS containing 0.05% Tween 20), and incubated with blocking buffer (100 μl; 5% bovine serum albumin [BSA] in wash buffer) for 1 h. […] Abcam plc, Cambridge, UK). After a washing, cells were incubated with a horseradish peroxidase (HRP)-conjugated anti-mouse IgG antibody (50 μl/well; 1:2,000, Abcam) for 1 h. Tetramethylbenzidine (TMB) substrate (50 μl) was then added after two washings with WB and one with PBS, and the reaction was stopped by the addition of aqueous sulfuric acid (2 N; 50 μl/well). The resultant signal was determined colorimetrically (OD at 450 nm [OD450] with a reference wavelength of 655 nm) in a microplate reader (Multiskan FC; Thermo Fisher Scientific). Cells were then washed, and 0.5% crystal violet solution ([…]) was applied for 30 min. […] The measured F protein signals (OD450 − OD655 readings) were corrected for cell number (OD595 readings) by dividing the OD450–655 by the OD595 readings.

[17] = human respiratory syncytial virus, HEp-2
[18] = CPE, HEp-2, n = 3, added with virus infection, ALS-8112 24 h prior
[19] = human respiratory syncytial virus

Structure (SMILES): Nc1ccn([C@@H]2O[C@@](CO)(CCl)[C@@H](O)[C@H]2F)c(=O)n1 [ALS-8112, reference compound]
IC50 [1]: 1500 nM
IC50 [2]: 880 nM
IC50 [3]: 3200 nM
IC50 [4]: 693 nM
IC50 [5]: 398 nM
IC50 [6]: 515 nM
IC50 [7]: 768 nM
CC50 [8]: > 341000 nM
IC50 [9, 17]: 647 ± 44.2 nM
IC90 [9, 17]: 2130 nM
IC90 ([10]; luciferase, HEp-2, wild-type L protein): 831 nM
IC50 [11, 17]: 455 ± 16 nM
IC90 [11, 17]: 1130 nM

Structure (SMILES): COc1ccc(CCNCCCN2C(=O)c3c(cc(N)c4[nH]c(-c5ccc(C)c([N+](=O)[O-])c5)nc34)C(C)(C)C2=O)cc1OC [BI compound D]
IC50 [9, 18]: 47.8 ± 2.96 nM
IC90 [9, 18]: > 1660 nM
IC50 [12]: 87.4 nM
IC90 [12]: 161 nM
activity on CPE of the PC786 escape mutant, in words [12]: slightly reduced
IC50 ([13]; CPE, N=3, vehicle control virus): 11.9 nM
IC90 ([13]; CPE, N=3): 79.9 nM
IC50 [10]: 55.3 nM
IC90 [10]: 233 nM
IC50 [11, 18]: 57.6 ± 1.53 nM
IC90 [11, 18]: > 333 nM

Structure (SMILES): Cc1cn2nc([C@@H]3CCCCN3C(=O)c3cc(Cl)ccc3NS(C)(=O)=O)cc2nc1N1CC[C@H](N)C1 [GS-5806, reference compound]
IC50 [9, 17]: 0.17 ± 0.043 nM
IC90 [9, 17]: > 126 nM
IC50 ([14]; HEp-2, 24 h, MOI 0.02, n = 3, read-out: IC50 at treatment time 24 h postinoculation): 1.62 nM
IC50 ([14]; HEp-2, 24 h, MOI 0.1, n = 3, read-out: IC50 at treatment time 24 h postinoculation): 2.05 nM
IC50 ([14]; HEp-2, 24 h, MOI 1.0, n = 3, read-out: IC50 at treatment time 24 h postinoculation): 11.7 nM
IC50 ([14]; HEp-2, 48 h, read-out: IC50 at treatment time 48 h postinoculation, MOI 0.02, n = 3): 6.46 nM
IC50 ([14]; HEp-2, 48 h, read-out: IC50 at treatment time 48 h postinoculation, MOI 0.1, n = 3): > 188 nM
IC50 ([14]; HEp-2, 48 h, read-out: IC50 at treatment time 48 h postinoculation, MOI 1.0, n = 3): > 188 nM
IC50 ([14]; HEp-2, 72 h, MOI 0.02, n = 3, read-out: IC50 at treatment time 72 h postinoculation): > 188 nM
IC50 ([14]; HEp-2, 72 h, MOI 0.1, n = 3, read-out: IC50 at treatment time 72 h postinoculation): > 188 nM
IC50 ([14]; HEp-2, 72 h, MOI 1.0, n = 3, read-out: IC50 at treatment time 72 h postinoculation): > 188 nM
IC50 ([14]; HEp-2, MOI 0.02, n = 3, CPE at 144 h, read-out: IC50 at treatment time 0 h postinoculation): 0.38 nM
IC50 ([14]; HEp-2, MOI 0.1, n = 3, CPE at 144 h, read-out: IC50 at treatment time 0 h postinoculation): 0.57 nM
IC50 ([14]; HEp-2, MOI 1.0, n = 3, CPE at 144 h, read-out: IC50 at treatment time 0 h postinoculation): 1.05 nM
IC50 [12]: < 0.188 nM
IC90 [12]: < 0.188 nM
activity on CPE of the PC786 escape mutant, in words [12]: remained susceptible
IC50 [13, 19]: 0.0018 nM
IC90 [13, 19]: 0.0048 nM
IC50 [11, 17]: 0.45 ± 0.018 nM
IC90 [11, 17]: 0.93 ± 0.098 nM

IC50 ([16]; 2 h exposure then 24-h washout before inoculation): 253000 nM
IC50 ([16]; nonwashout (sustained presence of drug)): 6000 nM
IC50 [9, 17]: 10300 nM
IC90 [9, 17]: > 16400 nM
IC50 [11, 17]: > 16400 nM
IC90 [11, 17]: > 16400 nM
Structure (SMILES): NC(=O)c1ncn([C@@H]2O[C@H](CO)[C@@H](O)[C@H]2O)n1 [Ribavirin]
CC50 [15]: 202000 nM

IC50 [9, 18]: 0.85 ± 0.017 nM
IC90 [9, 18]: 2.63 ± 0.19 nM
IC50 [11, 18]: 0.78 ± 0.0093 nM
IC90 [11, 18]: 1.29 ± 0.015 nM
Structure (SMILES): Cc1ccc(CCCO)c(NCc2ccc3nc(NCCCN4CCOCC4)n(Cc4nc(C)ccc4O)c3c2)c1 [TMC35315]
